According to patent US20230278958A1 (Merck Patent GmbH, priority 2020, published 2023):

Tested on: YAP-TEAD interaction
Assay: SK-HEP-1 reporter assay (8x TEAD responsive elements driving NanoLuc luciferase)
Type: cell-based
Conditions: Homo sapiens, SK-HEP1; SK-HEP-1 TEAD-NanoLuc reporter cells, 24 hour incubation, luciferase readout
Description: To identify inhibitors of YAP-TEAD interaction, 8× TEAD responsive elements driving the NanoLuc® luciferase gene were stably integrated into SK-HEP-1 cells (ECACC #: 91091816).
For the assay, cells were treated in duplicates with the test compounds in a 10-point dose, with the top concentration starting at 30 μM (final concentration in assay). After a 24 hour incubation at 37° C., 95% rH, and 5% CO2, a luciferase substrate/lysis reagent mix (NanoGlo™, Promega) was added to the cells, allowing the quantification of cellular luciferase activity.
Cell Media: The cells were cultured in the following media: MEM, +10% FBS, +1× GlutaMAX, +1 mM Sodium-Pyruvate, +100 μM Non-essential amino acids, +0.1 mg/ml Hygromycin. The media used for the assay was: MEM (w/o Phenol Red), +10% FBS, +1× GlutaMAX, +1 mM Sodium-Pyruvate, +100 μM Non-essential amino acids, +0.5% Pen/Strep
Reagents: The reagents used are listed below:
Cell culture: The cells were examined using an inverted microscope to check for health and cell density. To dissociate adherent cells, the monolayer of cells was washed once with pre-warmed PBS. After removing the PBS, 3 ml pre-warmed Accutase® was added to a F75 flask, dispersed evenly and the flask was allowed to sit in incubator for ˜4-5 minutes.
When a single cell suspension was obtained, 7 ml of prewarmed growth media was added and resuspended with the cells. The cell suspension was transferred to a sterile 15 ml conical centrifuge tube, and spun for 5 min at 300×g, RT. The supernatant was discarded and the pellet was resuspended in 10 ml of pre-warmed growth media.
The total cell count was determined, and 20 μl of the desired cell number was added to each well of a 384 well plate using a Multidrop Combi. The plates were then incubated for 24 hours at 37° C., 95% rH, and 5% CO2.
Compound treatment: 24 hours after seeding, the cells were treated with compounds.
A 1:333 dilution of compounds, diluted in DMSO, was made to get a final concentration of 0.3% DMSO per well. To transfer the compounds to the assay plate, 120 nl was shot from Labcyte low dead volume plates to the cell plates containing 20 μl media/well with the ECHO 555 liquid handling system.
After treatment, the cells were fed with 20 μl fresh pre-warmed assay media using a Multidrop combi.
The assay plates were then incubated for another 24 h at 37° C., 95% rH, and 5% CO2.
Luciferase readout: 24 h after treatment, the plates were taken out of the incubator and were allowed to equilibrate to RT. 30 μl of NanoGlo® reagent was added to the plates in the dark. Plates were shaken for 20 min on a Teleshake (˜1500 rpm) in the dark. The luminescence was then measured using an EnVision microplate reader. The IC50 values were generated using Genedata Screener®.
Experimental data in SK-HEP-1 reporter assay of the compounds shown in Table 1 are shown in Table 2 below and classified in the following groups: […]

IC50 [nM]	Structure (SMILES)
> 1000	Cc1ccc2c(c1)c1cc(C(=O)NCc3ccccn3)ccc1n2-c1ccc(OC(F)(F)F)cc1 [Compound 64, 6-methyl-N-[(pyridin-2-yl)methyl]-9-[4-(trifluoromethoxy)phenyl]-9H-carbazole-3-carboxamide]
> 1000	Cc1ccc2c(c1)c1cc(C(=O)NCc3ncccn3)ccc1n2-c1ccc(OC(F)(F)F)cc1 [Compound 65, 6-methyl-N-[(pyrimidin-2-yl)methyl]-9-[4-(trifluoromethoxy)phenyl]-9H-carbazole-3-carboxamide]
10 to 100	Cc1cc2c3cc(C(N)=O)ccc3n(-c3ccc(C(F)(F)F)cc3)c2cc1C [Compound 76, 6,7-dimethyl-9-[4-(trifluoromethyl)phenyl]-9H-carbazole-3-carboxamide]
> 1000	Cc1ccc2c(c1)c1cc(C(=O)NCc3ccncn3)ccc1n2-c1ccc(OC(F)(F)F)cc1 [Compound 73, 6-methyl-N-[(pyrimidin-4-yl)methyl]-9-[4-(trifluoromethoxy)phenyl]-9H-carbazole-3-carboxamide]
10 to 100	Cc1cc2c3cc(C(=O)NC4CC4)ccc3n(-c3ccc(C(F)(F)F)cc3)c2cc1C [Compound 70, N-cyclopropyl-6,7-dimethyl-9-[4-(trifluoromethyl)phenyl]-9H-carbazole-3-carboxamide]
10 to 100	Cc1cc2c3cc(C(=O)NCCO)ccc3n(-c3ccc(C(F)(F)F)cc3)c2cc1C [Compound 75, N-(2-hydroxyethyl)-6,7-dimethyl-9-[4-(trifluoromethyl)phenyl]-9H-carbazole-3-carboxamide]
1 to 10	CNC(=O)c1ccc2c(c1)c1cc(C)c(C)cc1n2-c1ccc(C(F)(F)F)cc1 [Compound 74, N,6,7-trimethyl-9-[4-(trifluoromethyl)phenyl]-9H-carbazole-3-carboxamide]
> 1000	O=C(O)c1cc2c3ccccc3n(Cc3ccc(C(F)(F)F)cc3)c2cn1 [Compound 32, 9-{[4-(trifluoromethyl)phenyl]methyl}-9H-pyrido[3,4-b]indole-3-carboxylic acid]
100 to 1000	Cc1ccc2c(c1)c1cc(C(=O)N[C@@H](C)CO)ccc1n2-c1ccc(C(F)(F)F)cc1 [Compound 72, N-[(2S)-1-hydroxypropan-2-yl]-6-methyl-9-[4-(trifluoromethyl)phenyl]-9H-carbazole-3-carboxamide]
100 to 1000	Cc1ccc2c(c1)c1cc(C(=O)NC[C@H](O)CO)ccc1n2-c1ccc(C(F)(F)F)cc1 (single isomer, unassigned) [Compound 69, N-[(2S or 2R)-2,3-dihydroxypropyl]-6-methyl-9-[4-(trifluoromethyl)phenyl]-9H-carbazole-3-carboxamide]
10 to 100	Cc1ccc2c(n1)c1cc(C(N)=O)ccc1n2-c1ccc(C(F)(F)F)cc1 [Compound 67, 2-methyl-5-[4-(trifluoromethyl)phenyl]-5H-pyrido[3,2-b]indole-8-carboxamide]
10 to 100	Cc1ccc2c(c1)c1cc(C(=O)NC[C@@H](O)CO)ccc1n2-c1ccc(C(F)(F)F)cc1 (single isomer, unassigned) [Compound 68, N-[(2R or 2S)-2,3-dihydroxypropyl]-6-methyl-9-[4-(trifluoromethyl)phenyl]-9H-carbazole-3-carboxamide]
100 to 1000	Cc1ccc2c(c1)c1cc(C(=O)NCC(O)C(F)(F)F)ccc1n2-c1ccc(C(F)(F)F)cc1 (stereo not drawn) [Compound 60, 6-methyl-N-(3,3,3-trifluoro-2-hydroxypropyl)-9-[4-(trifluoromethyl)phenyl]-9H-carbazole-3-carboxamide]
> 1000	Cc1ccc2c(c1)c1cc(C(=O)NCc3cnccn3)ccc1n2-c1ccc(OC(F)(F)F)cc1 [Compound 66, 6-methyl-N-[(pyrazin-2-yl)methyl]-9-[4-(trifluoromethoxy)phenyl]-9H-carbazole-3-carboxamide]
100 to 1000	Cc1ccc2c(c1)c1cc(C(=O)N[C@H](C)CO)ccc1n2-c1ccc(C(F)(F)F)cc1 [Compound 71, N-[(2R)-1-hydroxypropan-2-yl]-6-methyl-9-[4-(trifluoromethyl)phenyl]-9H-carbazole-3-carboxamide]
